Among the data in PMC5532207, “Honokiol suppresses formyl peptide-induced human neutrophil activation by blocking formyl peptide receptor 1” (Scientific Reports, 2017) are IC50 values, retold here.

The target in this test is T1, Formyl peptide receptor 1 (FPR1) (Homo sapiens, UniProt P21462).
T1 construct: human neutrophils; also hFPR1 (NM_002029)-transfected HEK-293 and differentiated THP-1 cells
T1 sequence (P21462 1-350): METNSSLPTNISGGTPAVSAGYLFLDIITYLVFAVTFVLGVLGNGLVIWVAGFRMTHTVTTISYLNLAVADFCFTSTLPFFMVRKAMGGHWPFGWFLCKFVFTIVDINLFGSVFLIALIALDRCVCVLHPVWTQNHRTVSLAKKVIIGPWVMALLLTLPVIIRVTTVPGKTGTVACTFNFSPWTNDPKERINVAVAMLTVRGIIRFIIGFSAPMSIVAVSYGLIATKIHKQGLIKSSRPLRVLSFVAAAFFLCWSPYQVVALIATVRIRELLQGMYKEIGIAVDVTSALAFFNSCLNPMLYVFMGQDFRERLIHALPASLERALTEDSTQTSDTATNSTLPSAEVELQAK
Put plainly: displacement of fluorescent FPR1 ligand fNLFNYK on intact cells, flow cytometry. The class given is cell-based.

In turn, `C=CCc1ccc(O)c(-c2ccc(O)c(CC=C)c2)c1` [H, Honokiol] had a half-maximal inhibitory concentration (IC50) of 7.44 ± 0.97 µM.

As a reminder, the IC50 is the concentration that inhibits the measured activity by half.
